The record followed here is patent US10626081B2, “Farnesoid X receptor agonists and uses thereof” (Metacrine, Inc., priority 2015, dated 2020).

The structures appear in SMILES notation. Some results are limits rather than exact numbers.

Test [1] concerns the target T1, FXR (Homo sapiens, UniProt Q96RI1).
T1 construct: expressed in transfected cells; host or cells: CV-1 cells
T1 sequence (Q96RI1 1-486): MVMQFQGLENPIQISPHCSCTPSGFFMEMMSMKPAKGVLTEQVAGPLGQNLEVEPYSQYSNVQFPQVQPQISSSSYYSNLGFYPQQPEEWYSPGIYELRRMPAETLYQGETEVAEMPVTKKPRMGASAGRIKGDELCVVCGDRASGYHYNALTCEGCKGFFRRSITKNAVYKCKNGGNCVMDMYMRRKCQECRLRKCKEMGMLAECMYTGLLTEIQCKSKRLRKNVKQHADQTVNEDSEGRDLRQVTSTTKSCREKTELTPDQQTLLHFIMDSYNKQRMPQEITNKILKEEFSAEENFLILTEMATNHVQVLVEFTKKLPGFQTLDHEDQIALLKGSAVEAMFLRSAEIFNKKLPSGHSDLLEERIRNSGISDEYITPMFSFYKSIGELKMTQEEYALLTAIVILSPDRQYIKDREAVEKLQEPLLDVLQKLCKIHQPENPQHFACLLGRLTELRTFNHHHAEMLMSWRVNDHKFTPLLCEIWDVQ
T1 sequence (P19793 1-462 partner): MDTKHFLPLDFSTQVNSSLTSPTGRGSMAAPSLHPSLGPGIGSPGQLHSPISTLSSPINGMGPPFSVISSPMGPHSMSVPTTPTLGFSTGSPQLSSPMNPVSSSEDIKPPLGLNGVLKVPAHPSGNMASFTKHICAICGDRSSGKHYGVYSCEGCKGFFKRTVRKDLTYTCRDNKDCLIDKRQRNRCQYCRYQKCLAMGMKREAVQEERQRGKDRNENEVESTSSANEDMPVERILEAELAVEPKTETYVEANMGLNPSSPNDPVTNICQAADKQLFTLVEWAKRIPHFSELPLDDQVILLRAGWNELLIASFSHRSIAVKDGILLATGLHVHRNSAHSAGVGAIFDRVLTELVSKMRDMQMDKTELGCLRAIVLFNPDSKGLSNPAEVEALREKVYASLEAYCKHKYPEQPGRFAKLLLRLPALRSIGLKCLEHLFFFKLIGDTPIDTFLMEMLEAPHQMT
Put plainly: In Vitro FXR Assay (PGL3): luciferase reporter in transfected CV-1 cells. The note with it: CV-1 cells transfected with hFXR, hRXR, PGL3-ECRE*6-luc; 18 h incubation; luminescence. It counts as cell-based. The method, then:
Example B-1: In Vitro FXR Assay (PGL3)
CV-1 cells were seeded at a density of 2,000,000 cells in a T175 flask with DMEM+10% charcoal double-stripped FBS and incubated at 37° C. in a 5% CO2 for 18 h (O/N).
After 18 h of incubation, the medium in the T175 flask was changed with fresh DMEM+10% charcoal super-stripped serum.
To prepare the transfection reaction mixture, the transfection reagent (X-tremeGENE HP from Roche, Cat #06 366 236 001) was added in to a 1.5 mL microcentrifuge tube labelled “A” at a ratio of 1:3 (DNA in transfection reagent in μL). OptiMEM medium (Life Technologies, Cat #31985-062) was added accordingly to provide a total volume of 1 mL. The transfection reaction mixture was then briefly vortexed and incubated at room temperature for 5 minutes.
In a separate 1.5 mL microcentrifuge tube labelled “B”, 100 μL OptiMEM and plasmids XPD90Gal pCMXhFXRfl, pCMXhRXRfl+PGL3-ECRE*6-luc+CMX-YFP in the ratio 2 μg:2 μg:18 μg:3 μg were added. This microcentrifuge tube “B” was then briefly vortexed and incubated at room temperature for 5 minutes.
The total volume in tube labelled “A” was then transferred in to tube labelled “B.” The mixture was then briefly vortexed and the transfection:DNA complex was then incubated for about 15-20 minutes at room temperature.
Following incubation, the transfection reagent/DNA mixture complex was then added to cells in the T175 flask and the cells were incubated at […] (O/N) at 37° C. in 5% CO2.
In a 96 well plate, a half logarithmic serial dilution was prepared. OptiMEM was used as the diluent. Using any of one of the compounds described herein, a compound stock solution of 10 mM was prepared. An initial 1:100 dilution was made into the first well for a final concentration of 100 μM. The final concentrations in the 96-well plate was prepared by using a multichannel pipette to transfer 5 μL of the diluted compound to 384-well plate in quadruplicate.
Cells in T175 flask were trypsinized and cells were resuspended in 40 mL phenol red free DMEM+10% charcoal super-stripped FBS. Typically, one T175 flask was sufficient to seed two 384 well plates. CV-1 cells were seeded at 45 μL cell suspension/well using a multi-channel pipet or a 384 multidrop dispenser. The cells were then incubated for 18 hrs, overnight.
After removing the plates from the incubator, the medium was flicked out of plate and 384 well plate was turned upside down onto paper towel. The remaining medium was gently tapped out. 15 μL lysis buffer was then added to each well using a multichannel pipet or a 384 well multi-drop dispenser. After incubation for 10 minutes at room temperature on shaker, 30 μL Luciferase buffer was added to each well. Luminescence counts were taken immediately using the Perkin Elmer Envision.
The ability of the compounds disclosed herein to […] FXR activity was quantified and the respective EC50 value was determined. Fex=fexaramine.

Test [2] has as its target T1, FXR. Kind of test: In Vitro FXR Assay (TK): TK-ECRE-luc reporter in transfected CV-1 cells. The format is cell-based. To be noted: CV-1 cells transfected with hFXR, hRXR, 18 h incubation, luminescence. An outline of the steps: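 Luciferase read-out from lysed CV-1 cells exposed 18 h to DMSO-diluted compounds. Cells had been transfected overnight with expression plasmids for hFXR and hRXR plus TK-ECRE-luc reporter and pCMX-YFP, grown in charcoal-stripped serum at 37 °C, 5% CO2.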

As usually defined, the EC50 is the midpoint of the concentration-response curve. Low readings indicate greater potency, high ones weaker potency.

Turning to `COC(=O)/C=C/c1cccc(N(Cc2ccc(-c3ccc(N(C)C)cc3)cc2)C(=O)N2CCCCC2)c1` [compound 16], the “Cmpd/Fex (ratio of the EC50 for the test compound relative to the EC50 of the Fexaramine control)” value at FXR [1] was “++ (‘++’ means Cmpd/Fex > 10 & < 100)”. This molecule also yielded an EC50 on FXR [2] of 1000 to 10000 nM.
The corresponding values for `COC(=O)/C=C/c1cccc(N(Cc2ccc(-c3ccc(N(C)C)cc3)cc2)C(=O)[C@H]2CC[C@@H](O)CC2)c1` [compound 18, cis-(E)-Methyl 3-(3-(N-((4′-(dimethylamino)-[1,1′-biphenyl]-4-yl)methyl)-4-hydroxycyclohexanecarboxamido)phenyl)acrylate] are “+++ (‘+++’ means Cmpd/Fex < 10)” and at most 1000 nM.
The like results for `COC(=O)/C=C/c1cccc(N(Cc2ccc(-c3ccc(N(C)C)cc3)cc2)C(=O)[C@H]2CC[C@H](O)CC2)c1` [compound 19, trans-(E)-Methyl 3-(3-(N-((4′-(dimethylamino)-[1,1′-biphenyl]-4-yl)methyl)-4-hydroxycyclohexanecarboxamido)phenyl)acrylate] were, in that order, “+++ (‘+++’ means Cmpd/Fex < 10)” and at most 1000 nM.
As for `COC(=O)/C=C/c1cccc(N(Cc2ccc(-c3ccc(N(C)C)c(C)c3)cc2)C(=O)C2CCCCC2)c1` [compound 20, (E)-Methyl 3-(3-(N-((4′-(dimethylamino)-3′-methyl-[1,1′-biphenyl]-4-yl)methyl)cyclohexanecarboxamido)phenyl)acrylate], on FXR [1], the “Cmpd/Fex (ratio of the EC50 for the test compound relative to the EC50 of the Fexaramine control)” value is listed as “+++ (‘+++’ means Cmpd/Fex < 10)”. In addition, the EC50 on FXR [2] is at most 1000 nM.
With `COC(=O)/C=C/c1cccc(N(Cc2ccc(-c3ccccc3C)cc2)C(=O)C2CCCCC2)c1` [compound 21, (E)-Methyl 3-(3-(N-((2′-methyl-[1,1′-biphenyl]-4-yl)methyl)cyclohexanecarboxamido)phenyl)acrylate], the “Cmpd/Fex (ratio of the EC50 for the test compound relative to the EC50 of the Fexaramine control)” value on FXR [1] is listed as “+++ (‘+++’ means Cmpd/Fex < 10)”. Further, the EC50 on FXR [2] was in the range of 1000 to 10000 nM.
The corresponding values for `COC(=O)/C=C/c1cccc(N(Cc2ccc(-c3ccncc3)cc2)C(=O)C2CCCCC2)c1` [compound 22, (E)-Methyl 3-(3-(N-(4-(pyridin-4-yl)benzyl)cyclohexanecarboxamido)phenyl) acrylate] are “+ (‘+’ means Cmpd/Fex > 100)” and 1000 to 10000 nM.
With `COC(=O)/C=C/c1cccc(N(Cc2ccc(-c3ccc(C#N)cc3)cc2)C(=O)C2CCCCC2)c1` [compound 23, (E)-Methyl 3-(3-(N-((4′-cyano-[1,1′-biphenyl]-4-yl)methyl)cyclohexanecarboxamido)phenyl)acrylate], the “Cmpd/Fex (ratio of the EC50 for the test compound relative to the EC50 of the Fexaramine control)” value on FXR [1] is reported as “+++ (‘+++’ means Cmpd/Fex < 10)”. The molecule also yielded an EC50 on FXR [2] of 1000 to 10000 nM.
`COC(=O)/C=C/c1cccc(N(Cc2ccc(-c3cccc(C#N)c3)cc2)C(=O)C2CCCCC2)c1` [compound 24, (E)-Methyl 3-(3-(N-((3′-cyano-[1,1′-biphenyl]-4-yl)methyl)cyclohexanecarboxamido)phenyl)acrylate]: at FXR [1], the “Cmpd/Fex (ratio of the EC50 for the test compound relative to the EC50 of the Fexaramine control)” value is listed as “+++ (‘+++’ means Cmpd/Fex < 10)”. The EC50 on FXR [2] is at most 1000 nM.
Consider `COC(=O)/C=C/c1cccc(N(Cc2ccc(-c3ccc(F)cc3)cc2)C(=O)C2CCCCC2)c1` [compound 25, (E)-Methyl 3-(3-(N-((4′-fluoro-[1,1′-biphenyl]-4-yl)methyl)cyclohexanecarboxamido)phenyl)acrylate], for which the “Cmpd/Fex (ratio of the EC50 for the test compound relative to the EC50 of the Fexaramine control)” value at FXR [1] is listed as “++ (‘++’ means Cmpd/Fex > 10 & < 100)”. The same molecule displayed an EC50 at FXR [2] of 1000 to 10000 nM.
The like results for `COC(=O)/C=C/c1cccc(N(Cc2ccc(-c3cccc(F)c3)cc2)C(=O)C2CCCCC2)c1` [compound 26, (E)-Methyl 3-(3-(N-((3′-fluoro-[1,1′-biphenyl]-4-yl)methyl)cyclohexanecarboxamido)phenyl)acrylate] were, in that order, “+++ (‘+++’ means Cmpd/Fex < 10)” and 1000 to 10000 nM.
`COC(=O)/C=C/c1cccc(N(Cc2ccc(-c3ccccc3F)cc2)C(=O)C2CCCCC2)c1` [compound 27, (E)-Methyl 3-(3-(N-((2′-fluoro-[1,1′-biphenyl]-4-yl)methyl)cyclohexanecarboxamido)phenyl) acrylate]: on FXR [1], the “Cmpd/Fex (ratio of the EC50 for the test compound relative to the EC50 of the Fexaramine control)” value is given as “+++ (‘+++’ means Cmpd/Fex < 10)”. The same molecule showed an EC50 at FXR [2] of 1000 to 10000 nM.
The corresponding values for `COC(=O)/C=C/c1cccc(N(Cc2ccc(-c3cnn(C)c3)cc2)C(=O)C2CCCCC2)c1` [compound 28, (E)-Methyl 3-(3-(N-(4-(1-methyl-1H-pyrazol-4-yl)benzyl)cyclohexanecarboxamido)phenyl)acrylate] are “++ (‘++’ means Cmpd/Fex > 10 & < 100)” and 1000 to 10000 nM.
The corresponding values for `COC(=O)/C=C/c1cccc(N(Cc2ccc(-c3cccnc3)cc2)C(=O)C2CCCCC2)c1` [compound 29, (E)-Methyl 3-(3-(N-(4-(pyridin-3-yl)benzyl)cyclohexanecarboxamido)phenyl) acrylate] are “++ (‘++’ means Cmpd/Fex > 10 & < 100)” and 1000 to 10000 nM.
The corresponding values for `COC(=O)/C=C/c1cccc(N(Cc2ccc(-c3cccc(OC(F)(F)F)c3)cc2)C(=O)C2CCCCC2)c1` [compound 30, (E)-Methyl 3-(3-(N-((3′-(trifluoromethoxy)-[1,1′-biphenyl]-4-yl)methyl)cyclohexanecarboxamido)phenyl)acrylate] are “+ (‘+’ means Cmpd/Fex > 100)” and 1000 to 10000 nM.
Turning to `COC(=O)/C=C/c1cccc(N(Cc2ccc(-c3c(C)noc3C)cc2)C(=O)C2CCCCC2)c1` [compound 31, (E)-Methyl 3-(3-(N-(4-(3,5-dimethylisoxazol-4-yl)benzyl)cyclohexanecarboxamido)phenyl)acrylate], the “Cmpd/Fex (ratio of the EC50 for the test compound relative to the EC50 of the Fexaramine control)” value on FXR [1] is given as “+ (‘+’ means Cmpd/Fex > 100)”. The EC50 at FXR [2] lay in the range of 1000 to 10000 nM.
Turning to `COC(=O)/C=C/c1cccc(N(Cc2ccc(-c3ccc(OC(C)C)cc3)cc2)C(=O)C2CCCCC2)c1` [compound 32, (E)-Methyl 3-(3-(N-((4′-isopropoxy-[1,1′-biphenyl]-4-yl)methyl)cyclohexanecarboxamido)phenyl)acrylate], at FXR [1], the “Cmpd/Fex (ratio of the EC50 for the test compound relative to the EC50 of the Fexaramine control)” value was “++ (‘++’ means Cmpd/Fex > 10 & < 100)”. On FXR [2], this molecule yielded an EC50 of 1000 to 10000 nM.
